Five molecules from PubChem BioAssay AID1745844 (Carcinogenic Potency Database (CPDB), 2022) can be followed below.

The data set concerns rodent lifetime carcinogenesis bioassay, tumor incidence TD50. As to the kind of experiment: carcinogenic potency in animals, long-term in vivo studies, CPDB compilation (AID 1745844).
Where [1] appears, read: rat, strain Sprague-Dawley, females, by gavage, site: liver, lesion: hepatocellular carcinoma, dosed 52 weeks, study length 65 weeks.

Several values for one entry are separate records, joined by “and”; a condition that tells them apart may be missing. Equal values may be shown once. Activity calls are given as the source filed them. The rule behind the calls is not given here.

Broadly, the TD50 is the dose at which the toxic effect under study appears in half of the subjects.

In the case of `CC/C(=C(\c1ccccc1)c1ccc(OCCN(C)C)cc1)c1ccccc1`, the TD50 reads like this: (mouse, strain AP Alderly Park, females, several routes, site: ovary, lesion: granulosa-cell adenoma, dosed 65 weeks, study length 65 weeks) 3 mg/kg/day; (mouse, strain AP Alderly Park, males, several routes, site: testis, lesion: interstitial-cell adenoma, dosed 65 weeks, study length 65 weeks) 8.18 mg/kg/day; (mouse, strain AP Alderly Park, males, several routes, site: testis, lesion: interstitial-cell tumor, dosed 56 weeks, study length 56 weeks) 9.8 mg/kg/day; (mouse, strain B6C3F1, females, in feed, site: liver, lesion: hepatocellular adenoma, dosed 104 weeks, study length 104 weeks) 101 mg/kg/day (inactive); (rat, strain Alpk:APfSD, females, by gavage, site: liver, lesion: biliary cystadenoma, dosed 88 weeks, study length 107 weeks) 706 mg/kg/day; (rat, strain Alpk:APfSD, females, by gavage, site: liver, lesion: cholangioma, dosed 88 weeks, study length 107 weeks) 2260 mg/kg/day. In addition, the TD50 (rat, strain Alpk:APfSD, females, by gavage, site: liver, lesion: hepatocellular adenoma, dosed 88 weeks, study length 107 weeks) is 135 mg/kg/day; the TD50 (rat, strain Alpk:APfSD, females, by gavage, site: liver, lesion: hepatocellular carcinoma, dosed 88 weeks, study length 107 weeks) is 17 mg/kg/day; the TD50 (rat, strain Alpk:APfSD, females, by gavage, site: liver, lesion: hepatocholangiocarcinoma, dosed 88 weeks, study length 107 weeks) is 241 mg/kg/day; the TD50 (rat, strain Alpk:APfSD, males, by gavage, site: liver, lesion: biliary cystadenoma, dosed 88 weeks, study length 107 weeks) worked out at 1100 mg/kg/day; the TD50 (rat, strain Alpk:APfSD, males, by gavage, site: liver, lesion: hepatocellular adenoma, dosed 88 weeks, study length 107 weeks) is 47.9 mg/kg/day; the TD50 (rat, strain Alpk:APfSD, males, by gavage, site: liver, lesion: hepatocellular carcinoma, dosed 88 weeks, study length 107 weeks) was 18.7 mg/kg/day. For the same molecule, the TD50 by setting is: (rat, strain Alpk:APfSD, males, by gavage, site: liver, lesion: hepatocholangiocarcinoma, dosed 88 weeks, study length 107 weeks) 306 mg/kg/day; (rat, strain Charles River CD (Sprague-Dawley), females, by gavage, site: liver, lesion: hepatocellular adenoma, dosed 51 weeks, study length 65 weeks) 7.77 mg/kg/day; (rat, strain Charles River CD (Sprague-Dawley), females, by gavage, site: liver, lesion: hepatocellular adenoma, dosed 52 weeks, study length 65 weeks) 4.35 mg/kg/day; (rat, strain Charles River CD (Sprague-Dawley), females, by gavage, site: liver, lesion: hepatocellular carcinoma, dosed 51 weeks, study length 65 weeks) 7.77 mg/kg/day; (rat, strain Charles River CD (Sprague-Dawley), females, by gavage, site: liver, lesion: hepatocellular carcinoma, dosed 52 weeks, study length 52 weeks) 2.12 mg/kg/day and 10.3 mg/kg/day; (rat, strain Charles River CD (Sprague-Dawley), females, by gavage, site: liver, lesion: hepatocellular carcinoma, dosed 52 weeks, study length 65 weeks) 4.62 mg/kg/day. Also, the TD50 (rat, strain Charles River CD (Sprague-Dawley), females, by gavage, site: liver, lesion: several types, types named in the paper, dosed 52 weeks, study length 52 weeks) is 1.44 mg/kg/day; the TD50 (rat, strain Charles River CD (Sprague-Dawley), females, by gavage, site: liver, lesion: several types, types named in the paper, dosed 52 weeks, study length 65 weeks) was 3.86 mg/kg/day; the TD50 (rat, strain Fischer 344/Tox, females, in feed, site: liver, lesion: hepatocellular carcinoma, dosed 86 weeks, study length 86 weeks) is 4.18 mg/kg/day; the TD50 (rat, strain Lewis, females, in feed, site: liver, lesion: hepatocellular carcinoma, dosed 48 weeks, study length 48 weeks) is 1.38 mg/kg/day; the TD50 (rat, strain Sprague-Dawley, females, by gavage, site: any site (literature study), lesion: malignant tumor, dosed 167 weeks, study length 167 weeks) worked out at 88.7 mg/kg/day; the TD50 (rat, strain Sprague-Dawley, females, by gavage, site: liver, lesion: hepatocellular adenoma, dosed 167 weeks, study length 167 weeks) was found to be 497 mg/kg/day. Also, the TD50 reads like this: (rat, strain Sprague-Dawley, females, by gavage, site: liver, lesion: hepatocellular carcinoma, dosed 52 weeks, study length 52 weeks) 11.8 mg/kg/day and 7.56 mg/kg/day and 4.79 mg/kg/day; under setting [1], 18.9 mg/kg/day and 6 mg/kg/day; (rat, strain Sprague-Dawley, females, by gavage, site: liver, lesion: hepatocellular carcinoma, dosed 167 weeks, study length 167 weeks) 164 mg/kg/day; (rat, strain Sprague-Dawley, females, by gavage, site: uterus, lesion: fibroma, dosed 167 weeks, study length 167 weeks) 247 mg/kg/day; (rat, strain Sprague-Dawley, females, by gavage, site: uterus, lesion: sarcoma, dosed 167 weeks, study length 167 weeks) 487 mg/kg/day; (rat, strain Sprague-Dawley, females, by gavage, site: uterus, lesion: squamous-cell carcinoma, dosed 167 weeks, study length 167 weeks) 497 mg/kg/day. For the same molecule, the TD50 is, setting by setting: (rat, strain Sprague-Dawley, females, by gavage, site: vagina, lesion: squamous-cell carcinoma, dosed 167 weeks, study length 167 weeks) 497 mg/kg/day; (rat, strain Sprague-Dawley, males, by gavage, site: any site (literature study), lesion: malignant tumor, dosed 167 weeks, study length 167 weeks) 187 mg/kg/day; (rat, strain Sprague-Dawley, males, by gavage, site: liver, lesion: hepatocellular adenoma, dosed 167 weeks, study length 167 weeks) 497 mg/kg/day; (rat, strain Sprague-Dawley, males, by gavage, site: liver, lesion: hepatocellular carcinoma, dosed 167 weeks, study length 167 weeks) 247 mg/kg/day; (rat, strain Sprague-Dawley, males, by gavage, site: mammary tissue, wider than the gland, lesion: adenocarcinoma, dosed 167 weeks, study length 167 weeks) 247 mg/kg/day; (rat, strain Sprague-Dawley, males, by gavage, site: mammary tissue, wider than the gland, lesion: benign tumor, dosed 167 weeks, study length 167 weeks) 96.4 mg/kg/day. Also, under “rat, strain Wistar/LAC-P, females, in feed, site: liver, lesion: hepatocellular carcinoma, dosed 49 weeks, study length 49 weeks”, the TD50 is 1.36 mg/kg/day. In addition, the carcinogen call runs as follows: (mouse, strain B6C3F1, females, in feed, site: lung, lesion: alveolar-cell carcinoma, dosed 104 weeks, study length 104 weeks) “negative (inactive)”; (mouse, strain B6C3F1, females, in feed, site: uterus, lesion: leiomyoma, dosed 104 weeks, study length 104 weeks) “negative (inactive)”; (mouse, strain C57BL/6, females, in feed, site: liver, lesion: hepatocellular carcinoma, dosed 52 weeks, study length 52 weeks) “negative (inactive)”; (mouse, strain DBA/2, females, in feed, site: liver, lesion: hepatocellular carcinoma, dosed 52 weeks, study length 52 weeks) “negative (inactive)”; under setting [1], “positive”; (rat, strain Sprague-Dawley, females, by gavage, site: liver, lesion: several types, types named in the paper, dosed 52 weeks, study length 52 weeks) “positive”.

For the molecule `CCCCCCc1ccc(O)cc1O`, the carcinogen call was “negative (inactive)” (mouse, strain B6C3F1, females, by gavage, site: any site (literature study), lesion: several types, types named in the paper, dosed 102 weeks, study length 104 weeks) and “negative (inactive)” (rat, strain Fischer 344, females, by gavage, site: any site (literature study), lesion: several types, types named in the paper, dosed 103 weeks, study length 104 weeks). The TD50 was 368 mg/kg/day (mouse, strain B6C3F1, males, by gavage, site: Harderian gland, lesion: adenoma, NOS + carcinoma, NOS, dosed 102 weeks, study length 104 weeks); 519 mg/kg/day (mouse, strain B6C3F1, males, by gavage, site: adrenal medulla, lesion: pheochromocytoma, dosed 102 weeks, study length 104 weeks); 128000 mg/kg/day (rat, strain Fischer 344, females, by gavage, site: liver, lesion: hepatocellular adenoma + hepatocellular carcinoma + neoplastic nodule, dosed 103 weeks, study length 104 weeks); 615 mg/kg/day (inactive) (rat, strain Fischer 344, males, by gavage, site: any site (literature study), lesion: several types, types named in the paper, dosed 103 weeks, study length 104 weeks); 1530 mg/kg/day (rat, strain Fischer 344, males, by gavage, site: liver, lesion: hepatocellular adenoma + hepatocellular carcinoma + neoplastic nodule, dosed 103 weeks, study length 104 weeks).

Regarding `C=CCOC(=O)CC(C)C`, the TD50 (mouse, strain B6C3F1, females, by gavage, site: all sites, lesion: malignant lymphoma, histiocytic type + malignant lymphoma, mixed type + malignant lymphoma, lymphocytic type, dosed 103 weeks, study length 106 weeks) is 62.8 mg/kg/day; the TD50 (mouse, strain B6C3F1, females, by gavage, site: all sites, lesion: malignant lymphoma, histiocytic type, dosed 103 weeks, study length 106 weeks) was 238 mg/kg/day; the TD50 (mouse, strain B6C3F1, females, by gavage, site: all sites, lesion: malignant lymphoma, mixed type, dosed 103 weeks, study length 106 weeks) was 102 mg/kg/day; the TD50 (mouse, strain B6C3F1, females, by gavage, site: any site (literature study), lesion: several types, types named in the paper, dosed 103 weeks, study length 106 weeks) is 65.5 mg/kg/day; the TD50 (mouse, strain B6C3F1, females, by gavage, site: lung, lesion: alveolar/bronchiolar adenoma + alveolar/bronchiolar carcinoma, dosed 103 weeks, study length 106 weeks) turned out to be 4450 mg/kg/day; the TD50 (mouse, strain B6C3F1, males, by gavage, site: any site (literature study), lesion: several types, types named in the paper, dosed 103 weeks, study length 106 weeks) turned out to be 206 mg/kg/day. Further, the TD50 (mouse, strain B6C3F1, males, by gavage, site: gastric mucosa, lesion: squamous-cell papilloma, dosed 103 weeks, study length 106 weeks) is 295 mg/kg/day (inactive); the TD50 (rat, strain Fischer 344, females, by gavage, site: any site (literature study), lesion: several types, types named in the paper, dosed 103 weeks, study length 106 weeks) is 43.5 mg/kg/day (inactive); the TD50 (rat, strain Fischer 344, males, by gavage, site: all sites, lesion: monocytic leukemia + malignant lymphoma, histiocytic type, dosed 103 weeks, study length 106 weeks) was 123 mg/kg/day; the TD50 (rat, strain Fischer 344, males, by gavage, site: all sites, lesion: monocytic leukemia, dosed 103 weeks, study length 106 weeks) was 149 mg/kg/day; the TD50 (rat, strain Fischer 344, males, by gavage, site: any site (literature study), lesion: several types, types named in the paper, dosed 103 weeks, study length 106 weeks) is 50.5 mg/kg/day; the TD50 (rat, strain Fischer 344, males, by gavage, site: liver, lesion: hepatocellular adenoma + hepatocellular carcinoma + neoplastic nodule, dosed 103 weeks, study length 106 weeks) was found to be 264 mg/kg/day. The TD50 (rat, strain Fischer 344, males, by gavage, site: preputial gland, lesion: adenoma, NOS + carcinoma, NOS + squamous-cell carcinoma, dosed 103 weeks, study length 106 weeks) is 136 mg/kg/day.

Turning to `CC1=CC(C)(C)N(N=O)c2ccccc21`, the TD50 (rat, strain CB, males, i.p., site: peritoneal cavity, lesion: sarcoma, dosed 26 weeks, study length 100 weeks) is 3.31 mg/kg/day.

For the molecule `O=NN1CCC1`, the TD50 by setting is: (hamster, strain Syrian Golden, males, by gavage, site: any site (literature study), lesion: several types, types named in the paper, dosed 50 weeks, study length 85 weeks) 8.83 mg/kg/day; (hamster, strain Syrian Golden, males, by gavage, site: liver, lesion: hepatocellular adenoma, dosed 50 weeks, study length 85 weeks) 10.7 mg/kg/day; (hamster, strain Syrian Golden, males, by gavage, site: liver, lesion: several types, types named in the paper, dosed 50 weeks, study length 85 weeks) 7.14 mg/kg/day.
